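These data come from cells grown in 96-well plates and exposed to compound for 48 hours at five concentrations. At the TGI there is no net growth.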
Columns and labels:
Test in all cases: NCI tumour cell line growth inhibition, 48 h
XF 498 CNS = tested on: XF 498 CNS
DMS 114 small cell lung = tested on: DMS 114 small cell lung
A549 NSCLC = tested on: A549 NSCLC
OVCAR-4 ovarian = tested on: OVCAR-4 ovarian
SF-295 CNS = tested on: SF-295 CNS
SK-MEL-2 melanoma = tested on: SK-MEL-2 melanoma
786-0 renal = tested on: 786-0 renal
NCI-H460 lung = tested on: NCI-H460 lung
RPMI-8226 leukemia = tested on: RPMI-8226 leukemia
OVCAR-5 ovarian = tested on: OVCAR-5 ovarian
HCT-116 colon = tested on: HCT-116 colon
OVCAR-8 ovarian = tested on: OVCAR-8 ovarian
HCC-2998 colon = tested on: HCC-2998 colon
HOP-62 NSCLC = tested on: HOP-62 NSCLC
SW-620 colon = tested on: SW-620 colon
HT29 colon = tested on: HT29 colon
KM20L2 colon = tested on: KM20L2 colon
SN12C renal = tested on: SN12C renal
RXF-631 renal = tested on: RXF-631 renal
NCI-H226 lung = tested on: NCI-H226 lung
UO-31 renal = tested on: UO-31 renal
LOX IMVI melanoma = tested on: LOX IMVI melanoma
UACC-257 melanoma = tested on: UACC-257 melanoma
U251 CNS = tested on: U251 CNS
SF-268 CNS = tested on: SF-268 CNS
RXF 393 renal = tested on: RXF 393 renal
IGROV1 ovarian = tested on: IGROV1 ovarian
OVCAR-3 ovarian = tested on: OVCAR-3 ovarian
KM12 colon = tested on: KM12 colon
SNB-75 CNS = tested on: SNB-75 CNS
ACHN renal = tested on: ACHN renal
HOP-18 NSCLC = tested on: HOP-18 NSCLC
SNB-19 CNS = tested on: SNB-19 CNS
EKVX NSCLC = tested on: EKVX NSCLC
TK-10 renal = tested on: TK-10 renal
SNB-78 CNS = tested on: SNB-78 CNS
SK-MEL-28 melanoma = tested on: SK-MEL-28 melanoma
MOLT-4 leukemia = tested on: MOLT-4 leukemia
UACC-62 melanoma = tested on: UACC-62 melanoma
LXFL 529 NSCLC = tested on: LXFL 529 NSCLC
HL-60(TB) leukemia = tested on: HL-60(TB) leukemia
M14 melanoma = tested on: M14 melanoma
M19-MEL melanoma = tested on: M19-MEL melanoma
MALME-3M melanoma = tested on: MALME-3M melanoma
SK-MEL-5 melanoma = tested on: SK-MEL-5 melanoma
DLD-1 colon = tested on: DLD-1 colon
CCRF-CEM leukemia = tested on: CCRF-CEM leukemia
COLO 205 colon = tested on: COLO 205 colon
HOP-92 NSCLC = tested on: HOP-92 NSCLC
NCI-H23 lung = tested on: NCI-H23 lung
SK-OV-3 ovarian = tested on: SK-OV-3 ovarian
DMS 273 small cell lung = tested on: DMS 273 small cell lung
MCF7 breast = tested on: MCF7 breast
SN12K1 renal = tested on: SN12K1 renal
P388 leukemia = tested on: P388 leukemia
HCT-15 colon = tested on: HCT-15 colon
NCI/ADR-RES ovarian = tested on: NCI/ADR-RES ovarian
P388/ADR leukemia = tested on: P388/ADR leukemia
SF-539 CNS = tested on: SF-539 CNS
A498 renal = tested on: A498 renal
K-562 leukemia = tested on: K-562 leukemia

## O=C(NC1C(=O)NNC1c1cccc([N+](=O)[O-])c1)c1ccccc1 (stereo not given)
XF 498 CNS
  TGI: > 100 µM
DMS 114 small cell lung
  TGI: > 100 µM
A549 NSCLC
  TGI: > 100 µM
OVCAR-4 ovarian
  TGI: > 100 µM
SF-295 CNS
  TGI: > 100 µM
SK-MEL-2 melanoma
  TGI: > 100 µM
786-0 renal
  TGI: > 100 µM
NCI-H460 lung
  TGI: > 100 µM
RPMI-8226 leukemia
  TGI: > 100 µM
OVCAR-5 ovarian
  TGI: > 100 µM
HCT-116 colon
  TGI: > 100 µM
OVCAR-8 ovarian
  TGI: > 100 µM
HCC-2998 colon
  TGI: > 100 µM
HOP-62 NSCLC
  TGI: > 100 µM
SW-620 colon
  TGI: > 100 µM
HT29 colon
  TGI: > 100 µM
KM20L2 colon
  TGI: > 100 µM
SN12C renal
  TGI: > 100 µM
RXF-631 renal
  TGI: > 100 µM
NCI-H226 lung
  TGI: > 100 µM
UO-31 renal
  TGI: > 100 µM
LOX IMVI melanoma
  TGI: > 100 µM
UACC-257 melanoma
  TGI: > 100 µM
U251 CNS
  TGI: > 100 µM
SF-268 CNS
  TGI: > 100 µM
RXF 393 renal
  TGI: > 100 µM
IGROV1 ovarian
  TGI: > 100 µM
OVCAR-3 ovarian
  TGI: > 100 µM
KM12 colon
  TGI: > 100 µM
SNB-75 CNS
  TGI: > 100 µM
ACHN renal
  TGI: > 100 µM
HOP-18 NSCLC
  TGI: > 100 µM
SNB-19 CNS
  TGI: > 100 µM
EKVX NSCLC
  TGI: > 100 µM
TK-10 renal
  TGI: > 100 µM
SNB-78 CNS
  TGI: > 100 µM
SK-MEL-28 melanoma
  TGI: > 100 µM
MOLT-4 leukemia
  TGI: > 100 µM
UACC-62 melanoma
  TGI: > 100 µM
LXFL 529 NSCLC
  TGI: > 100 µM
HL-60(TB) leukemia
  TGI: > 100 µM
M14 melanoma
  TGI: > 100 µM
M19-MEL melanoma
  TGI: > 100 µM
MALME-3M melanoma
  TGI: > 100 µM
SK-MEL-5 melanoma
  TGI: > 100 µM
DLD-1 colon
  TGI: > 100 µM
CCRF-CEM leukemia
  TGI: > 100 µM
COLO 205 colon
  TGI: > 100 µM
HOP-92 NSCLC
  TGI: > 100 µM
NCI-H23 lung
  TGI: > 100 µM

## CN(C)CCNC(=O)c1cccc2c1Nc1ccccc1S2
XF 498 CNS
  TGI: 25.3 µM
SK-OV-3 ovarian
  TGI: 30.5 µM
DMS 114 small cell lung
  TGI: 20 µM
A549 NSCLC
  TGI: 28.8 µM
OVCAR-4 ovarian
  TGI: 26.4 µM
SF-295 CNS
  TGI: 27.7 µM
SK-MEL-2 melanoma
  TGI: 30.3 µM
NCI-H460 lung
  TGI: 25.7 µM
RPMI-8226 leukemia
  TGI: 29.9 µM
DMS 273 small cell lung
  TGI: 29.3 µM
OVCAR-5 ovarian
  TGI: 26.3 µM
HCT-116 colon
  TGI: 25 µM
OVCAR-8 ovarian
  TGI: 30.2 µM
HCC-2998 colon
  TGI: 27.2 µM
HOP-62 NSCLC
  TGI: 33.4 µM
MCF7 breast
  TGI: 27 µM
SW-620 colon
  TGI: 30.8 µM
HT29 colon
  TGI: 25 µM
KM20L2 colon
  TGI: 29.9 µM
SN12C renal
  TGI: 26.1 µM
NCI-H226 lung
  TGI: 16.8 µM
UO-31 renal
  TGI: 21.8 µM
LOX IMVI melanoma
  TGI: 26.2 µM
UACC-257 melanoma
  TGI: 27 µM
U251 CNS
  TGI: 26.9 µM
SF-268 CNS
  TGI: 31.7 µM
SN12K1 renal
  TGI: 20.7 µM
P388 leukemia
  TGI: 6.23 µM
RXF 393 renal
  TGI: 23.6 µM
IGROV1 ovarian
  TGI: 24.1 µM
OVCAR-3 ovarian
  TGI: 28 µM
KM12 colon
  TGI: 26.4 µM
SNB-75 CNS
  TGI: 21.3 µM
HCT-15 colon
  TGI: 31.4 µM
HOP-18 NSCLC
  TGI: 24.4 µM
SNB-19 CNS
  TGI: 24 µM
NCI/ADR-RES ovarian
  TGI: 32.6 µM
P388/ADR leukemia
  TGI: 9.51 µM
EKVX NSCLC
  TGI: 18.7 µM
SF-539 CNS
  TGI: 28.8 µM
SNB-78 CNS
  TGI: 27.7 µM
SK-MEL-28 melanoma
  TGI: 27.7 µM
A498 renal
  TGI: 24.5 µM
K-562 leukemia
  TGI: 36.2 µM
MOLT-4 leukemia
  TGI: 29.5 µM
UACC-62 melanoma
  TGI: 28.4 µM
HL-60(TB) leukemia
  TGI: 19.2 µM
M19-MEL melanoma
  TGI: 29.6 µM
MALME-3M melanoma
  TGI: 29.2 µM
SK-MEL-5 melanoma
  TGI: 26.3 µM
DLD-1 colon
  TGI: 29.7 µM
CCRF-CEM leukemia
  TGI: 28.1 µM
COLO 205 colon
  TGI: 25.8 µM
HOP-92 NSCLC
  TGI: 8.96 µM
NCI-H23 lung
  TGI: 28.5 µM

— PubChem BioAssay (NCI)
